Results: US6552196B2, “Quinolone carboxylic acid derivatives” (Dong Wha Pharmaceutical Industrial Co., Ltd., priority 1997, dated 2003)

Assays:
Assay type in all cases: cell-based
[1] = system: Enterobacter clocae 1321E; experiment: In vitro antibacterial activity (MIC), agar dilution; settings: 2-fold agar dilution, Muller-Hinton agar, 18 hours at 37° C., read-out: minimum inhibitory concentration (MIC)
Method: (§1) 10^7 cfu/ml of bacteria were inoculated and cultured for 18 hours at 37° C. and then the antibacterial activities were measured. For the methicillin resistant strains the activities were measured after 48 hours of cultivation at 30° C. Hoechst Standard strains were used for the testings.

Enterobacter clocae P99 = experiment: as above; settings: 2-fold agar dilution, Muller-Hinton agar, 18 hours at 37° C., read-out: minimum inhibitory concentration (MIC)
Method: as §1

Esherichia coli 078 = experiment: as above; settings: 2-fold agar dilution, Muller-Hinton agar, 18 hours at 37° C., read-out: minimum inhibitory concentration (MIC)
Method: as §1

Esherichia coli 1507E = experiment: as above; settings: 2-fold agar dilution, Muller-Hinton agar, 18 hours at 37° C., read-out: minimum inhibitory concentration (MIC)
Method: as §1

Esherichia coli DC0 = experiment: as above; settings: 2-fold agar dilution, Muller-Hinton agar, 18 hours at 37° C., read-out: minimum inhibitory concentration (MIC)
Method: as §1

Esherichia coli TEM = experiment: as above; settings: 2-fold agar dilution, Muller-Hinton agar, 18 hours at 37° C., read-out: minimum inhibitory concentration (MIC)
Method: as §1

[2] = system: Klebsiella aerogenes 1522E; experiment: as above; settings: 2-fold agar dilution, Muller-Hinton agar, 18 hours at 37° C., read-out: minimum inhibitory concentration (MIC)
Method: as §1

Klebsiella oxytoca 1082E = experiment: as above; settings: 2-fold agar dilution, Muller-Hinton agar, 18 hours at 37° C., read-out: minimum inhibitory concentration (MIC)
Method: as §1

[3] = system: Pseudomonas aeruginosa 1592E; experiment: as above; settings: 2-fold agar dilution, Muller-Hinton agar, 18 hours at 37° C., read-out: minimum inhibitory concentration (MIC)
Method: as §1

[4] = system: Pseudomonas aeruginosa 1771M; experiment: as above; settings: Pseudomonas aeruginosa, 1771M, 18 h, read-out: minimum inhibitory concentration (MIC)
Method: as §1

[5] = system: Pseudomonas aeruginosa 1771; experiment: as above; settings: 2-fold agar dilution, Muller-Hinton agar, 18 hours at 37° C., read-out: minimum inhibitory concentration (MIC)
Method: as §1

[6] = system: Pseudomonas aeruginosa 9027; experiment: as above; settings: 2-fold agar dilution, Muller-Hinton agar, 18 hours at 37° C., read-out: minimum inhibitory concentration (MIC)
Method: as §1

Salmonella typhimurium = experiment: as above; settings: Salmonella enterica, 2-fold agar dilution, Muller-Hinton agar, 18 hours at 37° C., read-out: minimum inhibitory concentration (MIC)
Method: as §1

[7] = system: Staphylococcus aureus 285; experiment: as above; settings: 2-fold agar dilution, Muller-Hinton agar, 18 hours at 37° C., read-out: minimum inhibitory concentration (MIC)
Method: as §1

[8] = system: Staphylococcus aureus 503; experiment: as above; settings: 2-fold agar dilution, Muller-Hinton agar, 18 hours at 37° C., read-out: minimum inhibitory concentration (MIC)
Method: as §1

[9] = system: Staphylococcus aureus SG511; experiment: as above; settings: 2-fold agar dilution, Muller-Hinton agar, 18 hours at 37° C., read-out: minimum inhibitory concentration (MIC)
Method: as §1

[10] = system: Streptococcus faecium MD 8b; experiment: as above; settings: Enterococcus faecium, MD8B, 2-fold agar dilution, Muller-Hinton agar, 18 hours at 37° C., read-out: minimum inhibitory concentration (MIC)
Method: as §1

[11] = system: Streptococcus pyogens 308A; experiment: as above; settings: 2-fold agar dilution, Muller-Hinton agar, 18 hours at 37° C., read-out: minimum inhibitory concentration (MIC)
Method: as §1

[12] = system: Streptococcus pyogens 77A; experiment: as above; settings: 2-fold agar dilution, Muller-Hinton agar, 18 hours at 37° C., read-out: minimum inhibitory concentration (MIC)
Method: as §1

[13] = system: Staphylococcus aureus 121E; experiment: In vitro antibacterial activity against resistant strains (MIC); settings: resistant strain Staphylococcus aureus 121E; 2-fold agar dilution; methicillin resistant strains 48 hours at 30° C.; read-out: minimum inhibitory concentration (MIC)
Method: as §1

[14] = system: Staphylococcus aureus 179; experiment: as above; settings: resistant strain Staphylococcus aureus 179; 2-fold agar dilution; methicillin resistant strains 48 hours at 30° C.; read-out: minimum inhibitory concentration (MIC)
Method: as §1

[15] = system: Staphylococcus aureus 208E; experiment: as above; settings: resistant strain Staphylococcus aureus 208E; 2-fold agar dilution; methicillin resistant strains 48 hours at 30° C.; read-out: minimum inhibitory concentration (MIC)
Method: as §1

[16] = system: Staphylococcus aureus 241; experiment: as above; settings: resistant strain Staphylococcus aureus 241; 2-fold agar dilution; methicillin resistant strains 48 hours at 30° C.; read-out: minimum inhibitory concentration (MIC)
Method: as §1

[17] = system: Staphylococcus aureus 256E; experiment: as above; settings: resistant strain Staphylococcus aureus 256E; 2-fold agar dilution; methicillin resistant strains 48 hours at 30° C.; read-out: minimum inhibitory concentration (MIC)
Method: as §1

[18] = system: Staphylococcus aureus 293; experiment: as above; settings: resistant strain Staphylococcus aureus 293; 2-fold agar dilution; methicillin resistant strains 48 hours at 30° C.; read-out: minimum inhibitory concentration (MIC)
Method: as §1

[19] = system: Staphylococcus aureus 303; experiment: as above; settings: resistant strain Staphylococcus aureus 303; 2-fold agar dilution; methicillin resistant strains 48 hours at 30° C.; read-out: minimum inhibitory concentration (MIC)
Method: as §1

[20] = system: Staphylococcus aureus 690E; experiment: as above; settings: resistant strain Staphylococcus aureus 690E; 2-fold agar dilution; methicillin resistant strains 48 hours at 30° C.; read-out: minimum inhibitory concentration (MIC)
Method: as §1

[21] = system: Staphylococcus aureus 692E; experiment: as above; settings: resistant strain Staphylococcus aureus 692E; 2-fold agar dilution; methicillin resistant strains 48 hours at 30° C.; read-out: minimum inhibitory concentration (MIC)
Method: as §1

[22] = system: Staphylococcus aureus 693E; experiment: as above; settings: resistant strain Staphylococcus aureus 693E; 2-fold agar dilution; methicillin resistant strains 48 hours at 30° C.; read-out: minimum inhibitory concentration (MIC)
Method: as §1

[23] = system: Staphylococcus aureus 694E; experiment: as above; settings: resistant strain Staphylococcus aureus 694E; 2-fold agar dilution; methicillin resistant strains 48 hours at 30° C.; read-out: minimum inhibitory concentration (MIC)
Method: as §1

[24] = system: Staphylococcus aureus 695E; experiment: as above; settings: resistant strain Staphylococcus aureus 695E; 2-fold agar dilution; methicillin resistant strains 48 hours at 30° C.; read-out: minimum inhibitory concentration (MIC)
Method: as §1

[25] = system: Staphylococcus aureus 697E; experiment: as above; settings: resistant strain Staphylococcus aureus 697E; 2-fold agar dilution; methicillin resistant strains 48 hours at 30° C.; read-out: minimum inhibitory concentration (MIC)
Method: as §1

[26] = system: Staphylococcus aureus 701E; experiment: as above; settings: resistant strain Staphylococcus aureus 701E; 2-fold agar dilution; methicillin resistant strains 48 hours at 30° C.; read-out: minimum inhibitory concentration (MIC)
Method: as §1

[27] = system: Staphylococcus aureus 703E; experiment: as above; settings: resistant strain Staphylococcus aureus 703E; 2-fold agar dilution; methicillin resistant strains 48 hours at 30° C.; read-out: minimum inhibitory concentration (MIC)
Method: as §1

[28] = system: Staphylococcus aureus 8236; experiment: as above; settings: resistant strain Staphylococcus aureus 8236; 2-fold agar dilution; methicillin resistant strains 48 hours at 30° C.; read-out: minimum inhibitory concentration (MIC)
Method: as §1

[29] = system: Staphylococcus aureus 88E; experiment: as above; settings: resistant strain Staphylococcus aureus 88E; 2-fold agar dilution; methicillin resistant strains 48 hours at 30° C.; read-out: minimum inhibitory concentration (MIC)
Method: as §1

[30] = system: Staphylococcus epidermidis 178; experiment: as above; settings: resistant strain Staphylococcus epidermidis 178; 2-fold agar dilution; methicillin resistant strains 48 hours at 30° C.; read-out: minimum inhibitory concentration (MIC)
Method: as §1

[31] = system: Staphylococcus epidermidis 291; experiment: as above; settings: resistant strain Staphylococcus epidermidis 291; 2-fold agar dilution; methicillin resistant strains 48 hours at 30° C.; read-out: minimum inhibitory concentration (MIC)
Method: as §1

## CCON=C1CN(c2c(F)c(N)c3c(=O)c(C(=O)O)cn(C4CC4)c3c2F)CC12CNC2.CS(=O)(=O)O [Example 9, 1-Cyclopropyl-5-amino-6,8-difluoro-7-[8-(ethoxyimino)-2,6-diazaspiro[3,4]oct-6-yl]-4-oxo-1,4-dihydro-3-quinolinecarboxylic acid methanesulfonate]
[1]
  MIC: 0.007 µg/mL
Enterobacter clocae P99
  MIC: 0.007 µg/mL
Esherichia coli 078
  MIC: 0.004 µg/mL
Esherichia coli 1507E
  MIC: 0.013 µg/mL
Esherichia coli DC0
  MIC: 0.195 µg/mL
Esherichia coli TEM
  MIC: 0.013 µg/mL
[2]
  MIC: 0.049 µg/mL
Klebsiella oxytoca 1082E
  MIC: < 0.002 µg/mL
[3]
  MIC: 0.781 µg/mL
[4]
  MIC: 0.391 µg/mL
[5]
  MIC: 0.781 µg/mL
[6]
  MIC: 0.781 µg/mL
Salmonella typhimurium
  MIC: 0.007 µg/mL
[7]
  MIC: 0.007 µg/mL
[8]
  MIC: < 0.002 µg/mL
[9]
  MIC: < 0.002 µg/mL
[10]
  MIC: 0.049 µg/mL
[11]
  MIC: 0.025 µg/mL
[12]
  MIC: 0.004 µg/mL
[13]
  MIC: 0.013 µg/mL
[14]
  MIC: 0.098 µg/mL
[15]
  MIC: 0.013 µg/mL
[16]
  MIC: 0.098 µg/mL
[17]
  MIC: 0.013 µg/mL
[18]
  MIC: 0.098 µg/mL
[19]
  MIC: 0.098 µg/mL
[20]
  MIC: 0.007 µg/mL
[21]
  MIC: 0.007 µg/mL
[22]
  MIC: 0.013 µg/mL
[23]
  MIC: 0.013 µg/mL
[24]
  MIC: 0.013 µg/mL
[25]
  MIC: 0.004 µg/mL
[26]
  MIC: 0.013 µg/mL
[27]
  MIC: 0.013 µg/mL
[28]
  MIC: 0.098 µg/mL
[29]
  MIC: 0.007 µg/mL
[30]
  MIC: 0.391 µg/mL
[31]
  MIC: 0.391 µg/mL
